# Data taken from US8008354B2, “Death receptor sensitizing compounds and methods of use therefor” (Burnham Institute for Medical Research, priority 2006, dated 2011).
# Counter-ions that a name gives are not always drawn.
# Columns and labels:
# [1] = system: PPC-1 cells; assay: MTT cell viability of PPC-1 cells treated with compound with or without CH-11 anti-FAS antibody; assay type: cell-based; conditions: for IC50: Homo sapiens, PPC-1, 24 h, compound alone without CH-11, MTT 24 hours, read-out: LD50 (μM) PPCl; for LD50 (μM) (PPCl, CH-11): PPC-1 cells with CH-11 100 ng/mL, MTT 24 hours, LD50 = concentration that reduces cell viability by 50%
# Protocol: FIGS. 2A-C. […] PPC-1 cells (1×10^4) were seeded in 96 well plates. The next day, cells were treated with increasing concentrations of the sensitizing compounds with (open squares) and without (closed squares) CH-11 antibody (100 ng/mL). Cell viability was measured 24 hours later by MTT assay. Cell viability is expressed as a mean percentage of untreated cells+SD (n=3). The Chembridge identification numbers of the compounds are provided.
# High throughput screening. […] PPC-1 cells (1×10^4) were seeded overnight into 96 well, flat-bottom plates (Costar, Cambridge, Mass.) in 100 μL of medium containing 2.5% FCS. […] CH-11 antibody (100 ng/mL) was then added, and the cells were incubated for 24 hours before assessing cell viability by a 3-(4,5-Dimethylthiazol-2-yl)-2,5-diphenyltetrazolium Bromide (MTT) dye reduction assay (Sigma).
# Cell death assays. […] Absorbance readings were plotted against a standard curve to derive the corresponding cell number, and cell viability was expressed as a percentage relative to untreated cells.
# [2] = system: PPC-1 cells; assay: Apoptosis of PPC-1 cells transfected with CrmA or Bcl-XL, treated with CH-11 and compound; assay type: cell-based, human; conditions: for protection by Bcl-XL against apoptosis: PPC-1 cells transfected with Bcl-XL; for protection by CrmA against apoptosis induced by CH-11 plus compound: PPC-1 cells transfected with CrmA
# Protocol: FIG. 6. Characterization of the mechanism of FAS-sensitizing compounds. (A) PPC-1 cells (1×10^5) were seeded in 24 well plates. The next day, cells were treated with CH-11 antibody (100 ng/mL) and 30 μM 6094911, 5809354, or 5569100 with (square) or without (diamond) caspase inhibitor z-VAD-fmk (100 μM). Apoptosis was measured 24 hours later by Annexin V staining, expressing data as percentage of Annexin V-negative (“viable”) cells (mean+SD) (n=3). (B) PPC-1 cells (2×10^5) were seeded in 6 well plates and co-transfected with plasmids encoding Bcl-XL, Crm A, or empty vector along with a green fluorescent protein (GFP) encoding plasmid to identify successfully transfected cells. After 48 hours, cells were treated with CH-11 antibody (100 ng/mL) and 6094911 (30 μM), 5809354 (30 μM), or 5569100 (15 μM). As a positive control, transfected cells were treated with staurosporine (0.5 μM) (STS). Apoptotic cells were identified by morphological assessment of the GFP-positive cells, and data were expressed as the percentage of nonapoptotic (“viable”) cells (mean+SD) (n=3).
# Cell transfections. PPC-1 cells (2×10^5) were seeded in 35 mm diameter plates in RPMI with 10% FCS. The next day the cells were co-transfected using Lipofectamine Plus (Invitrogen, Carlsbad, Calif.) with 0.5 μg GFP-encoding plasmid pEGFP (Invitrogen) in combination with 1.5 μg of plasmids encoding Bcl-XL, the viral caspase-8 inhibitor Crm A, or empty vector. At 2 days post-transfection, cells were incubated with various concentrations of CH-11 antibody and the test compounds for 24 hours, then the percentage apoptosis was scored by UV-microscopic analysis of the GFP-positive cells, counting a minimum of 200 cells. Cells that had rounded up and were floating in the medium were counted as non-viable, while cells that remained adherent to the plate with normal morphological features were counted as viable.
# To further address the specificity of the compounds for the extrinsic pathway, the effects of selective apoptosis inhibitory genes were examined. For these experiments, PPC-1 cells were transfected with plasmids encoding CrmA, a viral protein that blocks the extrinsic pathway by inhibiting caspase-8 (Zhou et al., 1997) or encoding Bcl-xL, a mitochondria-targeting protein that blocks the intrinsic pathway by inhibiting release of cytochrome c (Boise et al., 1993; Kharbanda et al., 1997). After transfection, cells were treated with CH-11 antibody and compounds 6094911, 5809354, or […] scoring the percentage of apoptotic cells among the successfully transfected cells as determined by co-transfection of a GFP-marker plasmid.
Compound,IC50 ([1]; PPC-1 cells),"toxicity when added alone relative to 5541203 ([1]; PPC1 cells, without anti-FAS antibody)","LD50 (μM) (PPCl, CH-11) [1]","combination Index (CI) ([1]; combined with CH-11, median-dose combination index (Chou, 1991), synergy)",protection by Bcl-XL against apoptosis [2],protection by CrmA against apoptosis induced by CH-11 plus compound [2],"LD50 (μM) (PPCl, CH-11) ([1]; listed as N-[4-chloro-3-(trifluoromethyl)phenyl]-3-oxobutanamide)","direct toxicity ([1]; PPC-1 cells, compound alone, concentrations up to 80 μM)"
"CCn1c(=N)n(CC(=O)c2cc(C(C)(C)C)c(O)c(C(C)(C)C)c2)c2ccccc21 [compound 5569100, 1-(3,5-di-tert-butyl-4-hydroxyphenyl)-2-(3-ethyl-2-imino-2,3-dihydro-1H-benzo[d]imidazol-1-yl)ethanone hydrobromide]",15 µM,3 times,5.6 µM,did not demonstrate synergy,no protective effect,almost completely protected,,
"CC(=O)CC(=O)Nc1ccc(Cl)c(C(F)(F)F)c1 [compound 6094911, N-[4-chloro-3-(trifluoromethyl)phenyl]-3-oxobutanamide]",> 100 µM,,35+4 μM,,no protective effect,almost completely protected,35 ± 4 µM,little direct toxicity
4-(4-chloro-2-methylphenoxy)-N-hydroxybutanamide [compound 5809354],,,20+2 μM,,no protective effect,almost completely protected,,
"CN[C@@H]1C[C@H]2O[C@@](C)([C@@H]1OC)n1c3ccccc3c3c4c(c5c6ccccc6n2c5c31)C(=O)NC4 [staurosporine, reference compound]",,,,,Bcl-XL but not Crm A protected,,,
